Drawing on patent publication US20240109918A1, “HETEROCYCLIC COMPOUNDS AND USES THEREOF” (Kumquat Biosciences Inc., priority 2022, published 2024), this text covers IC50 for two molecules.

One experiment addresses T1, KRASG12D (Homo sapiens, UniProt P01116, G12D).
T1 construct: made in house; host or cells: E. coli BL21 (DE3)
The experiment in a line: Bio-Biochem-PPI-HTRF Ras-SOS1 interaction assay (KRAS G12D). The format is biochemical. As to conditions: 5 nM. The gist of the method:
(§1)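 Inhibition of His-hSOS1 binding to GST-tagged wild-type or G12D K-Ras is read as HTRF ratio (665/620 nm) following incubation of about 10 minutes or longer, and IC50 values are fitted from duplicate six-point titrations.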

The next experiment deals with T2, KRASwt (Homo sapiens, UniProt P01116).
T2 construct: made in house; host or cells: E. coli BL21 (DE3)
Briefly: Bio-Biochem-PPI-HTRF Ras-SOS1 interaction assay (KRAS wt). The format is biochemical. As to conditions: 5 nM. The gist of the method: as §1

Molecules are shown by their SMILES. Bounds are passed on as bounds.

T1 sequence (P01116 1-188 isoform P01116-2 G12D): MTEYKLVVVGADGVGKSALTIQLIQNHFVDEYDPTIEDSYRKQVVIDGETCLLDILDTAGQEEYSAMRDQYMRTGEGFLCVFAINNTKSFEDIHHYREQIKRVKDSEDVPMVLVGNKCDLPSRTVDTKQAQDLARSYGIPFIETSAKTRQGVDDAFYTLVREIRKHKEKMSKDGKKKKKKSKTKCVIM
T2 sequence (P01116 1-188 isoform P01116-2): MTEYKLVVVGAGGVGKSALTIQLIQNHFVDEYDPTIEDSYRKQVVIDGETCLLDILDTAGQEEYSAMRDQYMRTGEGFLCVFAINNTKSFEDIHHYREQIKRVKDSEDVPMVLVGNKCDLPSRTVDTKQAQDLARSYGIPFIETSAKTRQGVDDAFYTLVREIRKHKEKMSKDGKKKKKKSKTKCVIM

Consider `N#Cc1c(N)sc2c(F)ccc(-c3c(Cl)cc4c(N5CCCCC6(CN(C(=O)C7C8COCC87)C6)C5)nc(OC[C@@]56CCCN5C[C@H](F)C6)nc4c3F)c12` (stereo partly drawn) [compound 238, 4-(4-(2-(3-oxabicyclo[3.1.0]hexane-6-carbonyl)-2,6-diazaspiro [3.6]decan-6-yl)-6-chloro-8-fluoro-2-(((2R,7aS)-2-fluorotetrahydro-1H-pyrrolizin-7a(5H)-yl)methoxy)quinazolin-7-yl)-2-amino-7-fluorobenzo[b]thiophene-3-carbonitrile], for which the IC50 against KRASG12D and on KRASwt was below 5 µM throughout.
Turning to `N#Cc1c(N)sc2c(F)ccc(-c3c(Cl)cc4c(N5CCC(F)(F)CC6(CN(C(=O)[C@@H]7CC7(F)F)C6)C5)nc(OC[C@@]56CCCN5C[C@H](F)C6)nc4c3F)c12` [compound 290, 2-amino-4-(6-chloro-4-(2-((S)-2,2-difluorocyclopropane-1-carbonyl)-9,9-difluoro-2,6-diazaspiro [3.6]decan-6-yl)-8-fluoro-2-(((2R,7aS)-2-fluorotetrahydro-1H-pyrrolizin-7a(5H)-yl)methoxy)quinazolin-7-yl)-7-fluorobenzo[b]thiophene-3-carbonitrile], the IC50 on KRASG12D and against KRASwt was below 5 µM throughout.

Usually IC50 stands for the concentration needed to halve the response being measured. Low readings indicate greater potency in that assay, high ones weaker potency in that assay.
